The results in this text go back to patent US20050032873A1, “3-Amino chroman and 2-amino tetralin derivatives” (Wyeth, priority 2003, published 2005).

Read-outs that look alike come from different tables or passages of the source.

The target of one test is T1, serotonin transporter (Rattus norvegicus, UniProt P31652).
T1 construct: displace ^3H-paroxetine from male rat cortical membranes; from tissue; host or cells: male rat cortical membranes
Nature of the test: 5-HT transporter affinity: displacement of 3H-paroxetine from male rat cortical membranes. In kind it is binding. The note with it: displacement of 3H-paroxetine; male rat cortical membranes; read-out: 5-HT Transporter Affinity Ki. Background: In a radioligand displacement assay an active substance lowers the binding of a labelled ligand.

The target of test [1] is T2, 5-HT1A receptor (Homo sapiens, UniProt P08908).
T2 sequence (P08908 1-422): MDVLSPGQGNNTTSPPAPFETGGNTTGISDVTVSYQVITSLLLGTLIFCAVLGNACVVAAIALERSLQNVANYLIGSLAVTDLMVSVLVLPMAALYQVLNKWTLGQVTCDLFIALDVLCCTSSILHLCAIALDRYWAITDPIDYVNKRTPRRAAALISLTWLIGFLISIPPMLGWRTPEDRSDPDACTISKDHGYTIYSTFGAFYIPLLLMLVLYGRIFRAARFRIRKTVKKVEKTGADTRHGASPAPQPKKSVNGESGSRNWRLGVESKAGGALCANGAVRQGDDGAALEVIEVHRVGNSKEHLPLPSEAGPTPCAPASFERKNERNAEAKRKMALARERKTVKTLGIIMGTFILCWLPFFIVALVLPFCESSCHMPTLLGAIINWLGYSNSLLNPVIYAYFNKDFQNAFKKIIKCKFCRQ
As to the kind of experiment: cAMP accumulation assay, 5-HT1A function. In kind it is cell-based. The settings on record: for IC50: cells marked IC50 (antagonist), read-out: 5-HT1A Function cAMP IC50; for Emax: read-out: 5-HT1A Function cAMP (Emax); for EC50: cells marked EC50 (agonist). (cAMP levels reflect the balance of adenylyl cyclase and phosphodiesterase activity.)

Test [2] has as its target T2, 5-HT1A receptor. Nature of the test: 5-HT1A receptor affinity: displacement of [3H] 8-OH-DPAT. The note with it: for Ki: displacement of [3H] 8-OH-DPAT, CHO cells stably transfected with human 5-HT1A receptors, read-out: 5-HT1A Receptor Affinity Ki. Set-up: expressed in transfected cells. In kind it is binding.
Test [3] deals with T3, cloned human 5-HT1A receptors (Homo sapiens, UniProt P08908).
T3 construct: expressed in transfected cells
T3 sequence (P08908 1-422): T2 sequence (P08908 1-422)
Nature of the test: 35S-GTPγS binding assay, 5-HT1A function. In kind it is biochemical. The settings on record: for EC50: agonist potency; for IC50: antagonist potency, reversal of 8-OH-DPAT, read-out: 5-HT1A Function GTPγS IC50. (In general: Binding of GTPγS marks nucleotide exchange on a G protein.)

The mark [4] stands for this setting: maximum stimulatory effect, in brackets after EC50, read-out: 5-HT1A Function GTPγS (Emax).
The mark [5] stands for this setting: maximum inhibitory effect, in brackets after IC50, read-out: 5-HT1A Function GTPγS (Imax).

T1 sequence (P31652 whole entry): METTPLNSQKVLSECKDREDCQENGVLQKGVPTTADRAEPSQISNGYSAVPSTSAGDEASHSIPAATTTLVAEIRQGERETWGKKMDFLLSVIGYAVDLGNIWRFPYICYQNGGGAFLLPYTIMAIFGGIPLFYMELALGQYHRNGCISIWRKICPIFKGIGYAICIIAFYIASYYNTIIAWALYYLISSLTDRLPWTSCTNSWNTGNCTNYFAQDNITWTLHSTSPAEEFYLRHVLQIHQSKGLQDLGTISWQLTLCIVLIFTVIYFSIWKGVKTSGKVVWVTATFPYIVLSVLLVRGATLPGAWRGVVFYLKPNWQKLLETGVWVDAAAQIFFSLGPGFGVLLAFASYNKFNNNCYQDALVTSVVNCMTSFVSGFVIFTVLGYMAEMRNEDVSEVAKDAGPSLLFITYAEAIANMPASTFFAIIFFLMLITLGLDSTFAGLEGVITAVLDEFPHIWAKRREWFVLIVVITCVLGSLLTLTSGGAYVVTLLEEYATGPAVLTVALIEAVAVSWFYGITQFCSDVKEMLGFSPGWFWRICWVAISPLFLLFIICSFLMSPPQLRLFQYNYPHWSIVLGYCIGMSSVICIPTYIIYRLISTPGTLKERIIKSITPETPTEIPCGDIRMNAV

Regarding `CC(Cc1c[nH]c2ccc(F)cc12)CN(CC1CC1)[C@H]1COc2c(F)ccc(C(N)=O)c2C1` (single isomer, unassigned) [Compound 155b], the Ki (usually a measure of affinity in units of concentration, obtained from inhibition or displacement) on serotonin transporter came to 144 nM; at 5-HT1A receptor [2], 128 nM. The IC50 (in general, the point on the concentration scale where inhibition reaches its midpoint) at 5-HT1A receptor [1] came to 846 nM. For the same molecule, on 5-HT1A receptor [1] (in brackets after EC50 or IC50), the 5-HT1A Function cAMP (Emax) was 0%.
Take `N#Cc1ccc2[nH]cc(CCCN(C3CCC3)[C@@H]3COc4c(F)ccc(C(N)=O)c4C3)c2c1` [Compound 97a, (3S)-3-[[3-(5-cyano-1H-indol-3-yl)propyl](cyclobutyl)amino]-8-fluorochromane-5-carboxamide]: the Ki was 9 nM on serotonin transporter and 258 nM on 5-HT1A receptor [2]. In addition, the IC50 at 5-HT1A receptor [1] is 581 nM. Further, on 5-HT1A receptor [1] (in brackets after EC50 or IC50), the Emax amounted to 0%.
Consider `CCN(CCCc1c[nH]c2ccc(OC)cc12)C1COc2c(F)ccc(C(N)=O)c2C1` (stereo not shown) [Compound 105, 3-{ethyl[3-(5-methoxy-1H-indol-3-yl)propyl]amino}-8-fluorochromane-5-carboxamide], for which the results for the Ki at serotonin transporter and at 5-HT1A receptor [2] were 236 nM and 24.3 nM, respectively. At 5-HT1A receptor [1], a half-maximal effect (EC50) was put at 96.7 nM. The Emax on 5-HT1A receptor [1] (in brackets after EC50 or IC50) came to 81%.
With `NC(=O)c1cccc2c1C[C@@H](NCCCc1c[nH]c3ccc(F)cc13)CO2` [Compound 133b, (3R)-3-{[3-(5-fluoro-1H-indol-3-yl)propyl]amino}chromane-5-carboxamide], the Ki at serotonin transporter came to 43.2 nM; on 5-HT1A receptor [2] it was 38.6 nM. A half-maximal response in test [3] (EC50) required 1000 nM. Further, the Emax in test [3] (setting [4]) is 83%.
The like results for `CNC(=O)c1cccc2c1CC(N(CCCc1c[nH]c3c(F)cc(F)cc13)C1CCC1)CO2` (stereo not shown) [Compound 138, 3-{cyclobutyl[3-(5,7-difluoro-1H-indol-3-yl)propyl]amino}-N-methylchromane-5-carboxamide] were, in that order, 3.34 nM, 1.27 nM, 43 nM and 100%.
On the same counts, the results for `CCNC(=O)c1cccc2c1CC(N(CCCc1c[nH]c3c(F)cc(F)cc13)C1CCC1)CO2` (stereo not shown) [Compound 139, 3-{cyclobutyl[3-(5,7-difluoro-1H-indol-3-yl)propyl]amino}-N-ethylchromane-5-carboxamide] are 3.9 nM, 4.83 nM, 180 nM and 81%.
On to `CCCNC(=O)c1cccc2c1CC(N(CCCc1c[nH]c3c(F)cc(F)cc13)C1CCC1)CO2` (stereo not shown) [Compound 140, 3-{cyclobutyl[3-(5,7-difluoro-1H-indol-3-yl)propyl]amino}-N-propylchromane-5-carboxamide], for which the values for the Ki at serotonin transporter and on 5-HT1A receptor [2] were 3.78 nM and 39.2 nM, respectively. In addition, a half-maximal effect in test [3] (EC50) was put at 1020 nM. Further, the Emax in test [3] (setting [4]) was 65%.
On the same counts, the results for `CC(C)NC(=O)c1cccc2c1CC(N(CCCc1c[nH]c3c(F)cc(F)cc13)C1CCC1)CO2` (stereo not shown) [Compound 141, 3-{cyclobutyl[3-(5,7-difluoro-1H-indol-3-yl)propyl]amino}-N-isopropylchromane-5-carboxamide] are 3.52 nM, 7.69 nM, 287 nM and 99%.
In the case of `O=C(NC1CC1)c1cccc2c1CC(N(CCCc1c[nH]c3c(F)cc(F)cc13)C1CCC1)CO2` (stereo not shown) [Compound 142, 3-{cyclobutyl[3-(5,7-difluoro-1H-indol-3-yl)propyl]amino}-N-cyclopropylchromane-5-carboxamide], the Ki was found to be 3.88 nM at serotonin transporter and 4.03 nM on 5-HT1A receptor [2]. In addition, the midpoint of the response in test [3], the EC50, lay at 122 nM. Moreover, in test [3] (setting [4]), the Emax is 54%.
In the case of `NC(=O)c1ccc(F)c2c1C[C@@H](N(CCCc1c[nH]c3c(F)cc(F)cc13)CC1CC1)CO2` [Compound 147, (3R)-3-{(cyclopropylmethyl)[3-(5,7-difluoro-1H-indol-3-yl)propyl]amino}-8-fluorochromane-5-carboxamide], the figures for the Ki at serotonin transporter and on 5-HT1A receptor [2] were 10.7 nM and 3.04 nM, respectively. The IC50 at 5-HT1A receptor [1] is 505 nM. Also, the Emax at 5-HT1A receptor [1] (in brackets after EC50 or IC50) was found to be 0%.
For the molecule `CC(C)CN(CCCc1c[nH]c2ccc(F)cc12)C1COc2cccc(C(N)=O)c2C1` (stereo not shown) [Compound 151, 3-[[3-(5-fluoro-1H-indol-3-yl)propyl](isobutyl)amino]chromane-5-carboxamide], the Ki at serotonin transporter was 1190 nM; at 5-HT1A receptor [2] it was 102 nM. The midpoint of the response at 5-HT1A receptor [1], the EC50, lay at 168 nM. At 5-HT1A receptor [1] (in brackets after EC50 or IC50), the Emax worked out at 94%.
As for `COc1cccc2c(CCN(C3CCC3)C3COc4c(F)ccc(C(N)=O)c4C3)coc12` (stereo not shown) [Compound 159, 3-{cyclobutyl[2-(7-methoxy-1-benzofuran-3-yl)ethyl]amino}-8-fluorochromane-5-carboxamide], at serotonin transporter, the Ki was 149 nM. The IC50 in test [3] came to 5000 nM. Moreover, the Emax in test [3] (setting [5]) came out at 25%. Further, the inhibition at 1 µM at 5-HT1A receptor [2] (read-out: 5-HT1A Receptor Affinity, % @ 1 μM) came out at 30%.
For the molecule `CCCCN(CCCc1coc2c(OC)cccc12)C1COc2c(F)ccc(C(N)=O)c2C1` (stereo not shown) [Compound 166, 3-{butyl[3-(7-methoxy-1-benzofuran-3-yl)propyl]amino}-8-fluorochromane-5-carboxamide], the Ki on serotonin transporter stood at 498 nM; on 5-HT1A receptor [2] it was 14.2 nM. The IC50 at 5-HT1A receptor [1] is 301 nM. Further, on 5-HT1A receptor [1] (in brackets after EC50 or IC50), the Emax turned out to be 0%.
Regarding `CCCN(CCCCc1coc2c(OC)cccc12)[C@H]1COc2c(F)ccc(C(N)=O)c2C1` [Compound 172, (3R)-8-fluoro-3-[[4-(7-methoxy-1-benzofuran-3-yl)butyl](propyl)amino]chromane-5-carboxamide], the Ki on serotonin transporter was 516 nM; on 5-HT1A receptor [2], 497 nM. The IC50 at 5-HT1A receptor [1] is 379 nM. Moreover, the Emax on 5-HT1A receptor [1] (in brackets after EC50 or IC50) was found to be 0%.
With `NC(=O)c1ccc(F)c2c1CC(N(CCCCn1ccc3cccc(F)c31)CC1CC1)CO2` (stereo not shown) [Compound 191, 3-{(Cyclopropylmethyl)[4-(7-fluoro-1H-indol-1-yl)butyl]amino}-8-fluorochromane-5-carboxamide], the Ki on serotonin transporter turned out to be 38.7 nM; at 5-HT1A receptor [2] it was 19.3 nM. Besides, the IC50 in test [3] is 204 nM. In addition, the Emax in test [3] (setting [5]) came out at 74%.
As for `NC(=O)c1ccc(F)c2c1CC(N(CCCCn1ccc3cccc(F)c31)C1CCC1)CO2` (stereo not shown) [Compound 192, 3-{Cyclobutyl[4-(7-fluoro-1H-indol-1-yl)butyl]amino}-8-fluorochromane-5-carboxamide], the results for the Ki at serotonin transporter and at 5-HT1A receptor [2] were 39.3 nM and 39.9 nM, respectively. Besides, the IC50 in test [3] was found to be 1750 nM. In addition, the Emax in test [3] (setting [5]) is 86%.
For `CCN(CCCCn1ccc2ccc(F)cc21)C1COc2c(F)ccc(C(N)=O)c2C1` (stereo not shown) [Compound 193, 3-{Ethyl[4-(6-fluoro-1H-indol-1-yl)butyl]amino}-8-fluorochromane-5-carboxamide], the Ki stood at 15.6 nM at serotonin transporter and 21.6 nM at 5-HT1A receptor [2]. In addition, the EC50 (commonly the concentration needed to bring the measured effect to its halfway point) at 5-HT1A receptor [1] came out at 117 nM. Besides, the Emax on 5-HT1A receptor [1] (in brackets after EC50 or IC50) was found to be 89%.
Regarding `CCCN(CCCCn1ccc2ccc(F)cc21)C1COc2c(F)ccc(C(N)=O)c2C1` (stereo not shown) [Compound 194, 8-Fluoro-3-[[4-(6-fluoro-1H-indol-1-yl)butyl](propyl)amino]chromane-5-carboxamide], the Ki on serotonin transporter is 70 nM; at 5-HT1A receptor [2], 10.7 nM. Further, the response at 5-HT1A receptor [1] was half-maximal at 74.1 nM (EC50). Besides, the Emax at 5-HT1A receptor [1] (in brackets after EC50 or IC50) amounted to 81%.
For the molecule `NC(=O)c1ccc(F)c2c1CC(N(CCCCn1ccc3ccc(F)cc31)C1CCC1)CO2` (stereo not shown) [Compound 196, 3-{Cyclobutyl[4-(6-fluoro-1H-indol-1-yl)butyl]amino}-8-fluorochromane-5-carboxamide], the values for the Ki on serotonin transporter and on 5-HT1A receptor [2] were 124 nM and 12.8 nM, respectively. In addition, the IC50 in test [3] turned out to be 428 nM. Also, the Emax in test [3] (setting [5]) amounted to 100%.
`CCCN(CCCCn1ccc2cc(F)ccc21)C1COc2c(F)ccc(C(N)=O)c2C1` (stereo not shown) [Compound 198, 8-Fluoro-3-[[4-(5-fluoro-1H-indol-1-yl)butyl](propyl)amino]chromane-5-carboxamide]: the Ki at serotonin transporter came out at 114 nM; on 5-HT1A receptor [2] it was 6.54 nM. The molecule also returned an EC50 at 5-HT1A receptor [1] of 67.7 nM. The Emax at 5-HT1A receptor [1] (in brackets after EC50 or IC50) was 82%.
The like results for `NC(=O)c1ccc(F)c2c1CC(N(CCCCn1ccc3cc(F)ccc31)CC1CC1)CO2` (stereo not shown) [Compound 199, 3-{(Cyclopropylmethyl)[4-(5-fluoro-1H-indol-1-yl)butyl]amino}-8-fluorochromane-5-carboxamide] were, in that order, 77 nM, 5.44 nM, 74.7 nM and 72%.
In the case of `NC(=O)c1ccc(F)c2c1CC(N(CCCCn1ccc3cc(F)ccc31)C1CCC1)CO2` (stereo not shown) [Compound 200, 3-{Cyclobutyl[4-(5-fluoro-1H-indol-1-yl)butyl]amino}-8-fluorochromane-5-carboxamide], the Ki at serotonin transporter amounted to 241 nM; at 5-HT1A receptor [2] it was 10.8 nM. In test [3], the IC50 stood at 1110 nM. Besides, in test [3] (setting [5]), the Emax stood at 100%.
